From patent publication US8293240B2, “Method of treating drug-resistant cancer” (The Regents of the University of Colorado, priority 2004, dated 2012)

How the values were obtained:
L1210 cells = assay: DCFDA staining (reactive intermediates), L1210; assay type: cell-based; details: L1210, 24 hours of incubation, FIG. 12A
Procedure: Flow Cytometry. Cells were harvested, counted, and resuspended at 10^6 cells/100 μl of PBS containing 2.5% fetal calf serum in preparation for flow cytometric analysis. Cells were stained for intracellular H202 using 6-carboxy-2′,7′-dichlorodihydrofluorescein diacetate (DCF-DA, Molecular Probes, Eugene, Oreg.). Briefly, cells were incubated at 37° with 1 mM DCF-DA for 20 minutes, washed twice in PBS containing 2.5% fetal calf serum and analyzed flow cytometrically. Mitochondrial membrane potential was assessed using Mitotracker Red (CM-H2XROS, Molecular Probes, Eugene, Oreg.). […] The cells were incubated at 37° for 20 minutes, washed twice in PBS containing 2.5% fetal calf serum and analyzed flow cytometrically. Data were acquired on a Coulter Elite Epics or Excel flow cytometer (Coulter, Hialeah, Fla.) and analyzed with CellQuest software, (Becton Dickinson, San Jose, Calif.). […] Each sample population was classified for cell size (forward scatter) and complexity (side scatter), gated on a population of interest and evaluated using 5,000 cells. […]
We measured the effects of etomoxir on metabolism by measuring mitochondrial membrane potential with a fluorescent dye (Mitotracker Red, Molecular Probes, Eugene, Oreg.) which fluoresces as a function of mitochondrial potential. […]

B16F1 melanoma cells = assay: cell surface Fas (CD95) expression on B16F1 melanoma cells; assay type: cell-based, mouse; details: 48 hours
Procedure: Cell Surface Staining. Non-permeabilized cells were stained with antibodies to the cell surface receptors Fas (CD95) (Pharmingen) or with antibodies to uncoupling proteins (anti-UCP2 antibody) (Alpha Diagnostic International). Antibodies for both the isotype control and actual stain were added to the cell suspension, mixed, and then placed on ice for and incubation of 25 minutes in the dark. Subsequently the cells were centrifuged at 300×g for 5 minutes and the supernatant removed. The cells were washed one time with 100 μL of PBS/2.5% FBS and then transferred into flow cyotmetric tubes containing 500 μL of PBS/2.5% FBS for analysis.
B16F1 melanoma cells were cultured at a concentration of 0.5 to 1 million cells per ml. Cells were harvested and analyzed by flow cytometry. Dot plots are shown in FIG. 15 as functions of live versus dead cells. Each dot on the dot plot represents one cell. Five thousand cells were assessed for forward scatter (FS), as a function of cell size, versus side scatter (SS), as a function of cellular granularity. […]
Referring to FIGS. 17 and 18, B16F1 melanoma cells of Example 12 were untreated or treated with etomoxir at the indicated concentrations for 48 hours. Cells were harvested, stained with fluorochrome conjugated anti-Fas antibody (Pharmingen) and analyzed by flow cytometry.

[1] = tested on: RD cells (rhabdomyosarcoma cells-not drug resistant); assay: percent death of RD cells (flow cytometry, live versus dead); assay type: cell-based
Procedure: The cells were cultured at a concentration of 0.5 to 1 million cells per ml. Cells were untreated or treated with or 2-deoxy-D-glucose and/or etomoxir and/or antibodies to UCP2 and used at dilutions or concentrations as indicated on the figure. The cells were cultured in the presence or absence of etomoxir at 100 micrograms/ml for 24 hours followed by treatment with antibody as indicated for an additional 24 or 48 hours (i.e. totals of 48 hours or 72 hours respectively). Cells were harvested and analyzed by flow cytometry. Each dot on the dot plot represents one cell. Five thousand cells were assessed for forward scatter (FS), as a function of cell size, versus side scatter (SS), as a function of cellular granularity. The upper elipse represents live cells by these criterion and the lower elipse in each dot plot represents the dead cells.
Gating is a tool provided by Cell Quest software and allows for the analysis of a certain population of cells. Gating around both the live and dead cell populations gave a percent of the cell numbers that was in each population. After the gates were drawn, a percent value of dead cells was calculated by taking the number of dead cells divided by the number of total cells and multiplying by one hundred.
Referring to FIGS. 29 and 30, RD cells (rhabdomyosarcoma cells-not drug resistant), cultured as described above under “Materials and Methods” were untreated or treated with etomoxir, with 2-deoxy-D-glucose, or with a combination of etomoxir and 2-deoxy-D-glucose, at concentrations indicated in FIG. 29 for 24 hours. Cells were harvested and analyzed by flow cytometry.
Referring to FIGS. 33 and 34, RD cells, cultured as described in Example 22, were untreated or treated with etomoxir, with 2-deoxy-D-glucose, or with a combination of etomoxir and 2-deoxy-D-glucose, at concentrations indicated in FIG. 33 for 48 hours. Cells were harvested and analyzed by flow cytometry.
Referring to FIGS. 37 and 38, RD cells, cultured as described in Example 22, were treated with anti-UCP2 antibody and otherwise untreated or treated simultaneously with etomoxir, 2-deoxy-D-glucose, or both, at concentrations indicated in FIG. 37 for 48 hours. Cells were harvested and analyzed by flow cytometry.

HL60 MDR tumor = assay: tumor volume of HL60 MDR tumor implanted in nude mice; assay type: in vivo; details: for tumor volume: 200 ug Etomoxir, 2.5 mM 2-Deoxy-D-glucose
Excerpt: Tumor implantation. Mice were purchased from the Animal Production Program of National Cancer Institute, Frederick, Md. The animals used were Athymic Ncr-nu/nu (strain code 01B74). HL60 MDR cells were harvested and reconstituted at 1 million cells per 100 microliters of phosphate buffered saline. One million tumor cells per injection site were implanted subcutaneously on two sites of the animal's back. Treatments began at exactly seven days post tumor implantation. Tumor size/volume was monitored twice weekly using measurement calipers, with the formula Tumor Volume=π×(short diameter)^2×(long diameter)/6.
Mice experiments with fatty acid metabolism and glucose metabolism inhibitors. Fatty acid metabolism inhibitors were exemplified by etomoxir at 200 micrograms/day. Glucose metabolism inhibitors were exemplified by 2-deoxy-D-glucose at 2.5 mM in 100 microliters daily. The combination was administered daily, etomoxir at 200 micrograms and 2-deoxy-D-glucose at 2.5 mM in 100 microliters. All drugs were administered intra-peritoneally. Fluorouracil, at 20 mg per kilogram mouse, was injected intra-peritoneally once a week
HL60 MDR human leukemia cells were cultured and implanted in nude mice as described above under “Materials and Methods”. The mice were given 200 ug of Etomoxir, 2.5 mM 2-Deoxy-D-glucose, or both 200 ug of Etomoxir and 2.5 mM 2-Deoxy-D-glucose given daily by IP injection. Treatment began exactly one week after tumor implantation.
Mice were purchased from National Cancer Institute, Animal Production Program (Frederick, Md.). The animals used were Athymic Ncr-nu/nu (Strain code 01B74). HL60 MDR cells were harvested and reconstituted at 1 million cells per 100 microliters of phosphate buffered saline. One million tumor cells/per injection site were implanted subcutaneously on two sites of the animal's back. Treatments began at exactly seven days post tumor implantation. Tumor size/volume was monitored twice weekly using measurement calipers with the formula for Tumor Volume=π(short diameter)^2(long diameter)/(divided by )6. […]

CCOC(=O)C1(CCCCCCOc2ccc(Cl)cc2)CO1 (stereo not shown) [etomoxir, 2-(6-(4-chlorophenoxy)-hexyl)-oxirane-2-carboxylic acid ethyl ester]
free radicals (reactive intermediates), DCFDA staining (L1210 cells): increase in free radicals | cell surface Fas expression (B16F1 melanoma cells; B16F1 dead cell population, FIG. 18): dose dependent increase in cell surface Fas expression | cell surface Fas expression (B16F1 melanoma cells; B16F1 live cell population, FIG. 17): dose dependent increase in cell surface Fas expression | percent of cell deaths ([1]; RD cells after 24 hours): 57% | percent of cell deaths ([1]; RD cells after 48 hours): 64% | tumor volume (HL60 MDR tumor; Day 7, daily IP from one week after implantation): 36 mm^3 | tumor volume (HL60 MDR tumor; Day 9, daily IP): 71.73 mm^3 | tumor volume (HL60 MDR tumor; Day 15, daily IP): 261.35 mm^3 | tumor volume (HL60 MDR tumor; Day 21, daily IP): 895.09 mm^3 | effect on tumor growth (HL60 MDR tumor; HL60 MDR in nude mice, 21 day period, single agent): increase in tumor growth
